Test results reported in patent US12528791B2 (priority 2019, dated 2026).

Columns and labels:
THR-β/RXR-α = biological target: T1, THR-β/RXR-α (Homo sapiens, UniProt P10828); format: biochemical; settings: RXR heterodimer assay; compound activity normalized to T3 for THR-β/RXR-α and THR-α/RXR-α
T1 sequence (P10828 202-461 limits assumed): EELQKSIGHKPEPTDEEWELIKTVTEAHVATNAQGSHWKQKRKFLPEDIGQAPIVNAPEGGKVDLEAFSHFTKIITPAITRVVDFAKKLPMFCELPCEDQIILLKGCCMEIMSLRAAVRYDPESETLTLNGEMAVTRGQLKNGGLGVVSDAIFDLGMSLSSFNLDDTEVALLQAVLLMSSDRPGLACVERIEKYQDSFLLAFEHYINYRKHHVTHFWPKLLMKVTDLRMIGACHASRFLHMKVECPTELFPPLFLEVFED
T1 sequence (P19793 225-462 partner limits assumed): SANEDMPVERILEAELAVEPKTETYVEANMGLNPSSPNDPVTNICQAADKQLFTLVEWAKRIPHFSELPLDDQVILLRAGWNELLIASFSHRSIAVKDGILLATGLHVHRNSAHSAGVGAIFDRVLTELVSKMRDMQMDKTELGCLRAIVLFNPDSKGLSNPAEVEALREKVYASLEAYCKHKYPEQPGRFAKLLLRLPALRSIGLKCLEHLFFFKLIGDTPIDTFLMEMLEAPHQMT
T1 sequence (Q15596 679-703 partner limits assumed): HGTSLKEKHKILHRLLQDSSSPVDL

TR beta-LBD = biological target: T2, TR beta-LBD (Homo sapiens, UniProt P10828); format: biochemical; settings: TR-FRET assay; THR beta over THR alpha, derived from T3-selectivity normalized data
T2 sequence (P10828 217-461 limits assumed): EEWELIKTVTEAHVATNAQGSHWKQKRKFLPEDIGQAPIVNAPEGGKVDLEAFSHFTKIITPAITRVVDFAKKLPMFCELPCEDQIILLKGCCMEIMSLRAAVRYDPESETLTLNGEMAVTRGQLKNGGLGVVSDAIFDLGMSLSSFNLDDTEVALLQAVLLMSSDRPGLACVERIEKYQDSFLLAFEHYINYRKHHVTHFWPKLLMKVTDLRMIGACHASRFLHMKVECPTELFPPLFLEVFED

Work on `O=C(Nc1cc(Cl)c(Oc2ccc3nc(C4CC4)ccc3c2)c(Cl)c1)c1noc(=O)[nH]1` [Example 24, N-(3,5-dichloro-4-((2-cyclopropylquinolin-6-yl)oxy)phenyl)-5-oxo-4,5-dihydro-1,2,4-oxadiazole-3-carboxamide] yielded a THRβ-Selectivity (THR-β/RXR-α) of 4.8 and a THRβ-Selectivity (TR beta-LBD) of 8.1.
`Cn1cc2cc(Oc3c(Cl)cc(-n4nc(C#N)c(=O)[nH]c4=O)cc3Cl)ccc2n1` [Example 17, 2-(3,5-dichloro-4-((2-methyl-2H-indazol-5-yl)oxy)phenyl)-3,5-dioxo-2,3,4,5-tetrahydro-1,2,4-triazine-6-carbonitrile] showed a THRβ-Selectivity (THR-β/RXR-α) of 6.3 and a THRβ-Selectivity (TR beta-LBD) of 2.2.
`Cn1cnc2cnc(Oc3c(Cl)cc(NC(=O)c4noc(=O)[nH]4)cc3Cl)cc21` [Example 11, N-(3,5-dichloro-4-((1-methyl-1H-imidazo[4,5-c]pyridin-6-yl)oxy)phenyl)-5-oxo-4,5-dihydro-1,2,4-oxadiazole-3-carboxamide] was tested, and the THRβ-Selectivity (THR-β/RXR-α) was 10.4 and the THRβ-Selectivity (TR beta-LBD) was over 30.5.
`N#Cc1nn(-c2cc(Cl)c(Oc3ccc4ncccc4c3)c(Cl)c2)c(=O)[nH]c1=O` [Example 13, 2-(3,5-dichloro-4-(quinolin-6-yloxy)phenyl)-3,5-dioxo-2,3,4,5-tetrahydro-1,2,4-triazine-6-carbonitrile] was tested, and the THRβ-Selectivity (THR-β/RXR-α) was 5.5 and the THRβ-Selectivity (TR beta-LBD) was 3.7.
`Cc1cnc2ccc(Oc3c(Cl)cc(-n4nc(C#N)c(=O)[nH]c4=O)cc3Cl)cc2c1` [Example 16, 2-(3,5-dichloro-4-((3-methylquinolin-6-yl)oxy)phenyl)-3,5-dioxo-2,3,4,5-tetrahydro-1,2,4-triazine-6-carbonitrile] showed a THRβ-Selectivity (THR-β/RXR-α) of 7.1 and a THRβ-Selectivity (TR beta-LBD) of 68.1.
`COc1n[nH]c2ccc(Oc3c(Cl)cc(-n4nc(C#N)c(=O)[nH]c4=O)cc3Cl)cc12` [Example 9, 2-(3,5-dichloro-4-((3-methoxy-1H-indazol-5-yl)oxy)phenyl)-3,5-dioxo-2,3,4,5-tetrahydro-1,2,4-triazine-6-carbonitrile] gave a THRβ-Selectivity (THR-β/RXR-α) of 10.3 and a THRβ-Selectivity (TR beta-LBD) of 8.0.
For `Cn1cnc2ccc(Oc3c(Cl)cc(-n4nc(C#N)c(=O)[nH]c4=O)cc3Cl)cc21` [Example 19, 2-(3,5-dichloro-4-((1-methyl-1H-benzo[d]imidazol-6-yl)oxy)phenyl)-3,5-dioxo-2,3,4,5-tetrahydro-1,2,4-triazine-6-carbonitrile], the THRβ-Selectivity (THR-β/RXR-α) was 5.6 and the THRβ-Selectivity (TR beta-LBD) was 38.0.
Compound `Cc1ccnc2ccc(Oc3c(Cl)cc(NC(=O)c4noc(=O)[nH]4)cc3Cl)cc12` [Example 25, N-(3,5-dichloro-4-((4-methylquinolin-6-yl)oxy)phenyl)-5-oxo-4,5-dihydro-1,2,4-oxadiazole-3-carboxamide] has a THRβ-Selectivity (THR-β/RXR-α) of 5.7 and a THRβ-Selectivity (TR beta-LBD) of 1286.7.
For `Cc1n[nH]c2ncc(Oc3c(Cl)cc(NC(=O)c4noc(=O)[nH]4)cc3Cl)cc12` [Example 6, N-(3,5-dichloro-4-((3-methyl-1H-pyrazolo[3,4-b]pyridin-5-yl)oxy)phenyl)-5-oxo-4,5-dihydro-1,2,4-oxadiazole-3-carboxamide], the THRβ-Selectivity (THR-β/RXR-α) was 5.6 and the THRβ-Selectivity (TR beta-LBD) was over 18.5.
